Reference: patent publication US10150773B2, “N-substituted 8-[(2,6-difluorobenzyl)oxy]-2,6- dimethylimidazo[1,2-a]pyrazin-3-carboxamide derivatives as stimulators of soluble guanylate cyclase (SGC) for the treatment of cardiovascular diseases” (Bayer Pharma Aktiengesellschaft, priority 2015, dated 2018)

System: recombinant guanylate cyclase reporter cell line
Test: Effect on a recombinant guanylate cyclase reporter cell line
Type: cell-based
Conditions: in some cases mean values from individual determinations
Description: B-2. Effect on a Recombinant Guanylate Cyclase Reporter Cell Line
The cellular activity of the compounds according to the invention is determined using a recombinant guanylate cyclase reporter cell line, as described in F. Wunder et al., Anal. Biochem. 339, 104-112 (2005).
Representative MEC values (MEC=minimum effective concentration) for the compounds of the invention are shown in the table below (in some cases as mean values from individual determinations): […]

SMILES: Cc1cn2c(C(=O)NC(C)(CO)c3nnn(C(F)F)n3)c(C)nc2c(OCc2c(F)cccc2F)n1 (racemic) [Example 2, rac-8-[(2,6-Difluorobenzyl)oxy]-N-{2-[2-(difluoromethyl)-2H-tetrazol-5-yl]-1-hydroxypropan-2-yl}-2,6-dimethylimidazo[1,2-a]pyrazine-3-carboxamide]
- MEC (minimum effective concentration): 0.10 µM

SMILES: [2H]C([2H])([2H])CC(C)(N)CNC(=O)c1c(C)nc2c(OCc3c(F)cccc3F)nc(C)cn12 (single isomer, unassigned; enantiomer a) [Example 3, ent-N-[2-Amino-2-methyl(4,4,4-^2H3)butyl]-8-[(2,6-difluorobenzyl)oxy]-2,6-dimethylimidazo[1,2-a]pyrazine-3-carboxamide (Enantiomer A)]
- MEC (minimum effective concentration): 0.65 µM

SMILES: Cc1cn2c(C(=O)NCC(C)(N)CC[Si](C)(C)C)c(C)nc2c(OCc2c(F)cccc2F)n1 (single isomer, unassigned; enantiomer a) [Example 4, ent-N-[2-Amino-2-methyl-4-(trimethylsilyl)butyl]-8-[(2,6-difluorobenzyl)oxy]-2,6-dimethylimidazo[1,2-a]pyrazine-3-carboxamide (Enantiomer A)]
- MEC (minimum effective concentration): 1.0 µM

SMILES: Cc1cn2c(C(=O)NCC(C)(N)CC[Si](C)(C)C)c(C)nc2c(OCc2c(F)cccc2F)n1 (single isomer, unassigned; enantiomer b) [Example 5, ent-N-[2-Amino-2-methyl-4-(trimethylsilyl)butyl]-8-[(2,6-difluorobenzyl)oxy]-2,6-dimethylimidazo[1,2-a]pyrazine-3-carboxamide (Enantiomer B)]
- MEC (minimum effective concentration): 1.0 µM

SMILES: Cc1cn2c(C(=O)N[C@@](C)(CO)c3nnc(C)s3)c(C)nc2c(OCc2c(F)cccc2F)n1 [Example 1, ent-8-[(2,6-Difluorobenzyl)oxy]-N-[(2S)-1-hydroxy-2-(5-methyl-1,3,4-thiadiazol-2-yl)propan-2-yl]-2,6-dimethylimidazo[1,2-a]pyrazine-3-carboxamide]
- MEC (minimum effective concentration): 0.65 µM
